Experimental data reported in patent US8076486B2, “Heteroaryl-substituted arylaminopyridine derivatives as MEK inhibitors” (Merck Serono S.A., priority 2006, dated 2011).

Assays:
human MEK1 = human MEK1 (Homo sapiens, UniProt Q02750, S218E/S222E); assay: MEK-1 Enzyme Assay (LANCE-HTRF); type: biochemical; conditions: MEK-1 EE, ERK-2K52A substrate, 9 uM ATP, 1.5 hrs
Description: Assay 1: MEK-1 Enzyme Assay (LANCE-HTRF)
Inhibition of human MEK1 kinase activity was monitored with a homogenous, fluorescence-based assay. The assay uses time resolved fluorescence resonance energy transfer to probe for phosphorylation of ERK1 by MEK1. The detailed procedure is described in the following:
Constititutively active MEK-1 EE (150 ng/well) and ERK-2K52A (110 ng/well) were incubated in black, 384 well Optiplates (Perkin Elmer) for 1.5 hrs at room temperature, in the presence of increasing concentrations of inhibitors. The total reaction volume was 50 ul. The inhibitors were serial diluted in kinase buffer (9 uM ATP, 50 mM Tris-Hcl pH 8.0, 10 mM MgCl2, 1 mM DTT and 100 uM Na3VO4), to a final concentration of 1% DMSO. At the end of the incubation, the enzyme reaction was quenched by adding 50 ul of assay buffer containing 50 mM Tris-Hcl, 50 mM EDTA, 0.1% BSA and a mixture of 1.25 ug/mL europium labeled anti-phosphotyrosine mAb (Perkin Elmer) and 5 ug/mL of allophycocyanin labeled anti-GST antibody (CIS-US). Plates were agitated on a plate shaker for 30 minutes and the phosphorylation of the ERK-2K52A substrate was measured by homogeneous time resolved fluorescence (HTRF) at 340 nm excitation and […] emission filters on the VICTOR V fluorescence plate reader. Phosphorylation is expressed as a ratio of 665 nM signal×10,000/615 nM signal. To assess the inhibitory potential of the compounds, IC50-values were determined.

Murine colon C26 cells = assay: Tumor Cell Proliferation Assay (ATP Lite), C26; type: cell-based; conditions: Mus musculus, 96 h, 4 days, ATPlite
Description: (§1) Assay 2: Tumor Cell Proliferation Assays (ATP Lite)
(§2) Murine colon C26 (1500 cells/well), human melanoma A375 (2000 cells/well), or human pancreatic MiaPaCa-2 cells (2000 cells/well) were plated in white, 96 well plates (Corning) in growth media (DMEM with 10% fetal bovine serum, 2 mM glutamine for C26 and MiaPaCa-2, and RPMI with 10% fetal bovine serum, 2 mM glutamine for A375) and cultured overnight at 37° C. in a humidified, 5% CO2 incubator. Inhibitors were serially diluted in 100% DMSO and subsequently added to the cells, in growth media, to reach a final concentration of 0.25% DMSO. The cells were incubated for 4 days in the presence of the test compounds and the proliferation was quantitated using the ATPlite cell proliferation kit (Packard).

[1] = tested on: human melanoma A375 cells; assay: Tumor Cell Proliferation Assay (ATP Lite), A375; type: cell-based; conditions: A-375, 96 h, 4 days, ATPlite
Description: as §1, §2

[2] = tested on: human pancreatic MiaPaCa-2 cells; assay: Tumor Cell Proliferation Assay (ATP Lite), MiaPaCa-2; type: cell-based; conditions: MIA PaCa-2, 96 h, 4 days, ATPlite, read-out: MiaPaCa2 cell proliferation IC50
Description: as §1, §2

Sequence of human MEK1 (Q02750 whole entry S218E/S222E): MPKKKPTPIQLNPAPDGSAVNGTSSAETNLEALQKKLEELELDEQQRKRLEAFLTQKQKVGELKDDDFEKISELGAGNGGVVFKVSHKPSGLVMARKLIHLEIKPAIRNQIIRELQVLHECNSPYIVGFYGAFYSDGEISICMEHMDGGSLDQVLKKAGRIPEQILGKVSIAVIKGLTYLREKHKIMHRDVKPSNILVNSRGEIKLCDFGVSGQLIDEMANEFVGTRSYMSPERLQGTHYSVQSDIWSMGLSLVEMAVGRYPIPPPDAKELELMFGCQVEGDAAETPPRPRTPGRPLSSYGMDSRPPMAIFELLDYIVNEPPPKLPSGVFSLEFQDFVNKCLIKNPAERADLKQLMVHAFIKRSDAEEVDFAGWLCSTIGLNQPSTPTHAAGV

SMILES	IC50 (human MEK1)	IC50 (Murine colon C26 cells)	IC50 [1]	IC50 [2]
Fc1cc(I)ccc1Nc1cnccc1-c1n[nH]c(=S)o1 [Example 3, 5-[3-(2-Fluoro-4-iodo-phenylamino)-pyridin-4-yl]-3H-[1,3,4]oxadiazole-2-thione]	≤ 3000 nM	3000 to 25000 nM	≤ 3000 nM	≤ 3000 nM
O=c1[nH]nc(-c2ccncc2Nc2ccc(I)cc2F)[nH]1 [Example 4, 5-[3-(2-Fluoro-4-iodo-phenylamino)-pyridin-4-yl]-2,4-dihydro-[1,2,4]triazol-3-one]	≤ 3000 nM	≤ 3000 nM	≤ 3000 nM	≤ 3000 nM
CSc1nnc(-c2ccncc2Nc2ccc(I)cc2F)o1 [Example 5, (2-Fluoro-4-iodo-phenyl)-[4-(5-methylsulfanyl-[1,3,4]oxadiazol-2-yl)-pyridin-3-yl]-amine]	≤ 3000 nM	≤ 3000 nM	≤ 3000 nM	≤ 3000 nM
Cn1c(-c2ccncc2Nc2ccc(I)cc2F)n[nH]c1=S [Example 8, 5-[3-(2-Fluoro-4-iodo-phenylamino)-pyridin-4-yl]-4-methyl-2,4-dihydro-[1,2,4]triazole-3-thione]	≤ 3000 nM	≤ 3000 nM	≤ 3000 nM	≤ 3000 nM
Fc1cc(I)ccc1Nc1cnccc1C1NNC(=S)N1CCN1CCOCC1 (centres unmarked) [Example 9, 5-[3-(2-Fluoro-4-iodo-phenylamino)-pyridin-4-yl]-4-(2-morpholin-4-yl-ethyl)-[1,2,4]triazolidine-3-thione]	3000 to 25000 nM	≤ 3000 nM	≤ 3000 nM	≤ 3000 nM
CC1(C)OCC(CNc2nnc(-c3ccncc3Nc3ccc(I)cc3F)o2)O1 (centres unmarked) [Example 10, (4-{5-[(2,2-Dimethyl-[1,3]dioxolan-4-ylmethyl)-amino]-[1,3,4]oxadiazol-2-yl}-pyridin-3-yl)-(2-fluoro-4-iodo-phenyl)-amine]	≤ 3000 nM	≤ 3000 nM	≤ 3000 nM	≤ 3000 nM
C#Cc1cc(-c2nnc(N)o2)c(Nc2ccc(I)cc2F)cn1 [Example 28, [4-(5-Amino-[1,3,4]oxadiazol-2-yl)-6-ethynyl-pyridin-3-yl]-(2-fluoro-4-iodo-phenyl)-amine]	≤ 3000 nM			
CCOc1nnc(-c2ccncc2Nc2ccc(I)cc2F)[nH]1 [Example 30, [4-(5-Ethoxy-4H-[1,2,4]triazol-3-yl)-pyridin-3-yl]-(2-fluoro-4-iodo-phenyl)-amine]	≤ 3000 nM			

More lines, now with the values ahead:

IC50 (human MEK1)	IC50 (Murine colon C26 cells)	IC50 [1]	IC50 [2]	SMILES
≤ 3000 nM	3000 to 25000 nM	≤ 3000 nM	3000 to 25000 nM	O=c1[nH]nc(-c2ccncc2Nc2ccc(I)cc2F)o1 [Example 1, 5-[3-(2-Fluoro-4-iodo-phenylamino)-pyridin-4-yl]-3H-[1,3,4]oxadiazol-2-one]
≤ 3000 nM	≤ 3000 nM	≤ 3000 nM	≤ 3000 nM	Fc1cc(I)ccc1Nc1cnccc1-c1nnc(N2CCOCC2)o1 [Example 6, (2-Fluoro-4-iodo-phenyl)-[4-(5-morpholin-4-yl-[1,3,4]oxadiazol-2-yl)-pyridin-3-yl]-amine]
≤ 3000 nM	≤ 3000 nM	≤ 3000 nM	≤ 3000 nM	CNc1nnc(-c2ccncc2Nc2ccc(I)cc2F)s1 [Example 7, (2-Fluoro-4-iodo-phenyl)-[4-(5-methylamino-[1,3,4]thiadiazol-2-yl)-pyridin-3-yl]-amine]
≤ 3000 nM	≤ 3000 nM	≤ 3000 nM	≤ 3000 nM	OCC(O)CNc1nnc(-c2ccncc2Nc2ccc(I)cc2F)o1 (centres unmarked) [Example 11, 3-{5-[3-(2-Fluoro-4-iodo-phenylamino)-pyridin-4-yl]-[1,3,4]oxadiazol-2-ylamino}-propane-1,2-diol]
≤ 3000 nM				CCOC(=O)c1noc(-c2ccncc2Nc2ccc(I)cc2F)n1 [Example 36, 5-[3-(2-Fluoro-4-iodo-phenylamino)-pyridin-4-yl]-[1,2,4]oxadiazole-3-carboxylic acid ethyl ester]
≤ 3000 nM				Cc1noc(C)c1-c1ccncc1Nc1ccc(I)cc1F [Example 66]
